Where two headings read alike, the source gives them in different places.
Tests used:
[1] = system: CD34+, c-Kit+, Thy-1+ and Sca1+ cells in peripheral blood; settings: after liver transplantation, compared to control animals, AMD3100 1 mg/kg/day s.c.
Method: Single-cell suspensions (5×10^5) of peripheral blood monocytes were analyzed for CD34, CXCR4, c-Kit, Thy-1, and Sea-1 expression. Nonspecific antibody binding was blocked with goat and rat serum (Sigma) for 30 minutes.

[2] = system: skin allograft (DA into Lewis); assay: Skin allograft survival; settings: FK 0.1 mg/kg and/or AMD 1 mg/kg; controls rejected within 7 days
Method: DA rats or C57/B6 mice were used as skin donors and GFP transgenic Lewis rats were used as recipients. A graft bed (2.5×3 cm) was prepared on the back of a recipient rat; special care was given to preserving the panniculus carnosus. A 2.5×3 cm^2 graft, which had been prepared from the body trunk of a donor, was transplanted with interrupted sutures of 5-0 silk. The graft was covered with a protective tape and the first inspection was conducted 2 days after skin grafting and was followed by daily inspection. The rejection was defined as the day when the skin graft developed a red-brown color and hard consistency.
FK506 were injected subcutaneously every day following transplantation.

[3] = system: skin xenograft (C57/B6 mice into Lewis rats); assay: Skin xenograft survival, mouse into rat; assay type: in vivo; settings: FK 0.1 mg/kg and/or AMD 1 mg/kg
[4] = system: whole liver allograft (DA into Lewis rats); assay: Whole liver transplantation, rejection model: survival; settings: s.c. day 0,1,2,3,7,10,15, controls rejected within twelve days
Method: In whole liver transplantation rats, plerixafor and/or tacrolimus were injected subcutaneously immediately after reperfusion and on days 1, 2, 3, 7, 10 and 15 following transplantation.

[5] = system: cell migration stimulated by CXCL12; settings: Peled et al.; cited from earlier work
[6] = system: liver allografts (DA into GFP-Lewis rats); assay: Histology (H&E), GFP microscopy and Xenogen imaging of small liver allografts; assay type: in vivo, rat; settings: liver allografts 7 days after transplantation, versus control group
Method: Transplanted rats were divided by four groups: (1) control group (treated with same volume of saline); (2) low dose of immunosuppressant (FK-506, 0.1 mg/kg/day); (3) stem cell mobilizer (AMD3100, 1 mg/kg/day); and (4) combination of low dose FK-506 and AMD3100. AMD3100 and/or FK-506 were injected subcutaneously immediately after reperfusion and day 1, 2, 3 and 7 following liver transplantation (FIG. 1). Some of the animals were sacrificed at day 3, 7 and 10 after transplantation and liver tissue, spleen and peripheral blood were collected.
Histological changes in liver tissue sections were evaluated by H&E staining. Recipient-derived GFP positive cells in liver tissue sections were analyzed by confocal fluorescence microscopy.
GFP whole-organ fluorescence was measured using the Xenogen system.

[7] = system: kidney allograft (DA to Lewis); assay: Orthotopic kidney transplantation, acute rejection model: survival; assay type: in vivo, rat; settings: FK 0.05 mg/kg and/or AMD 1 mg/kg s.c.; controls rejected within 10 days
Method: Specifically, the DA to Lewis model of acute rejection was studied. Briefly, donor kidneys obtained from male DA rats were flushed with 10 ml cold saline and were stored at 4° C. while the recipient to be prepared. Total cold ischemic time was no longer than 40 minutes. Lewis male recipients were transplanted following left native nephrectomy. The donor renal artery, vein and ureter were anastomosed to the recipient renal artery, vein and ureter. The anastomosis was completed using 10-0 silk sutures. The right native kidney was removed before closing the abdomen.
AMD3100 were injected subcutaneously immediately after reperfusion (day 0) and day 2, 4 and 6 following kidney transplantation. […] Treatments were repeated in combination treated group at 1, 2 and 3 months after transplantation. Some of animals were sacrificed at day 7 and 30 after transplantation and kidney tissue, spleen and peripheral blood were collected.

[8] = system: c-Kit+, CD133+, Lin− Thy1+c-Kit+CD133+ cells in peripheral blood; assay: Mobilization of stem cells into peripheral blood (CBC and flow cytometry); assay type: in vivo, rat; settings: 3 hours after injection
Method: Single-cell suspensions (5×10^5) of peripheral blood monocytes were analyzed for lineage negative CD34, CD133, Thy1, and c-Kit expression. Nonspecific antibody binding was blocked with goat and rat serum (Sigma) for 30 minutes. Peripheral blood cells were isolated from animals at 3 hours after injection with AMD and/or FK. Complete blood count (CBC) was measured and stem cell markers were quantified by flow cytometry. The absolute number of stem cells was calculated as WBC (-thous./μL)×% of stem cells.

[9] = system: small liver allograft (DA into Lewis rats); assay: Small liver transplantation, acute rejection model: survival; settings: for recipient survival / liver allograft acceptance: small liver DA into Lewis, FK-506 0.1 mg/kg/day and/or AMD3100 1 mg/kg/day s.c. day 0,1,2,3,7, controls rejected within 12 days; for survival of one of five recipients: small liver, low dose FK-506 0.1 mg/kg/day alone
Method: Orthotopic liver transplantation (OLT) was performed under isoflurane (Abbott laboratories, North Chicago, Ill.) inhalation anesthesia according to a method modified from previously described. Small liver transplantation consisted of removal of the left lateral lobe, the left portion of the median lobe, and the anterior and posterior caudate lobes. This reduced the liver mass by about 50%. The livers were flushed in situ with 10 ml cold saline via the portal vein, explanted and immersed in cold saline solution. The host liver was excised by ligation and division of the right adrenal and lumbar veins. The hepatic artery was ligated and divided. The bile duct was cannulated by insertion of a tube 2 mm in length (outer diameter, 1.2 mm) via choledocotomy and secured with a circumferential 8-0 silk suture. […] The suprahepatic vena cava was pulled down using a cotton tape passed around the host liver and cross-clamped with a baby Statinksy clamp. The vessels were divided and liver was removed. The donor suprahepatic vena cava was anstomosed end-to-end with the host suprahepatic vena cava with running 8-0 prolene. The portal vein and infra hepatic vena cava were anastomosed using the cuff technique described previously. The common bile duct of the donor was cannulated with the small tube residing in the host bile duct and tied in place. The hepatic artery was not reconstructed.
Some of the animals were sacrificed at day 3, 7 and 10 after transplantation and liver tissue, spleen and peripheral blood were collected.
To test this hypothesis, liver transplants from dark agouti (DA) rats into Lewis rats, i.e. the rejection model were performed. Recipient rats were treated with a hematopoietic stem cell mobilizer (plerixafor) and/or low dose immunosuppressant (tacrolimus). Transplanted rats were divided into four groups: 1) a control group treated with saline), 2) treatment with low dose immunosuppressant (tacrolimus, 0.1 mg/kg/day), 3) stem cell mobilizer (plerixafor (AMD3100), 1 mg/kg/day) alone, or 4) a combination of low dose tacrolimus and plerixafor.
In small liver transplantation rats, plerixafor and/or tacrolimus were injected subcutaneously immediately after reperfusion and on days 1, 2, 3 and 7 following transplantation. In whole liver transplantation rats, plerixafor and/or tacrolimus were injected subcutaneously immediately after reperfusion and on days 1, 2, 3, 7, 10 and 15 following transplantation. Animals from each group were sacrificed on post-op days 3, 7 and 10 and liver tissue, spleen and peripheral blood were collected.

CXCR4 chomokin receptor = CXCR4 chomokin receptor (Homo sapiens, UniProt P61073); settings: Peled et al.; read-out: IC50, binds and inhibits CXCR4; cited from earlier work
Chain of CXCR4 chomokin receptor (P61073 whole entry): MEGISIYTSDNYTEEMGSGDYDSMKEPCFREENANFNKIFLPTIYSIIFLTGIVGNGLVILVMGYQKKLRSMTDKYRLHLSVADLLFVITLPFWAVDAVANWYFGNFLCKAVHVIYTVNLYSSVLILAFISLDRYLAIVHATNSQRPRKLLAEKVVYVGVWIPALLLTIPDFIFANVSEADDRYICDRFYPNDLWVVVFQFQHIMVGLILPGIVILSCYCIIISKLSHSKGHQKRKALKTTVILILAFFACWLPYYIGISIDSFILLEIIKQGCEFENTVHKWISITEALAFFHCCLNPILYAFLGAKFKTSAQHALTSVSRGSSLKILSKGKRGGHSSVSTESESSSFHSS

Compound	percentage of CD34+, c-Kit+, Thy-1+ and Sca1+ cells in peripheral blood ([1]; listed as AMD)	percentage of CD34+, c-Kit+, Thy-1+ and Sca1+ cells in peripheral blood ([1]; listed as plerixafor)	skin allograft survival / acceptance [2]	skin xenograft survival [3]	recipient survival [4]	IC50 [5] [µM]	mononuclear/inflammatory cellular infiltration in portal areas (H&E) ([6]; listed as AMD)	mononuclear/inflammatory cellular infiltration in portal areas (H&E) ([6]; listed as plerixafor)	recipient survival / kidney allograft acceptance [7]	absolute number of c-Kit+, CD133+ or Lin− and Thy1+c-Kit+CD133+ triple positive cells in peripheral blood ([8]; compared to saline or G-CSF treated animals)	recipient survival / liver allograft acceptance ([9]; listed as AMD)	recipient survival / liver allograft acceptance ([9]; listed as plerixafor)	mononuclear/inflammatory cellular infiltration in portal areas (H&E) [6]	mononuclear/inflammatory cellular infiltration in portal areas (H&E) ([6]; listed as FK-506)	c-Kit+ and CD133+ cells in peripheral blood ([8]; low-dose FK (0.1 mg/kg))	recipient survival / liver allograft acceptance ([9]; listed as FK-506)	recipient survival / liver allograft acceptance ([9]; listed as tacrolimus)	survival of one of five recipients [9] [months]	survival of one of five recipients ([9]; 0.1 mg/kg/day)	IC50 (CXCR4 chomokin receptor) [µM]
c1cc(CN2CCCNCCNCCCNCC2)ccc1CN1CCCNCCNCCCNCC1 [AMD3100, 1,1′-[1,4-phenylenebis(methylene)]bis-1,4,8,11-tetraazacyclo-tetradecane]	significantly increase	significantly increased	did not significantly prolong the allograft survival	did not prolong the xenograft survival	did not significantly prolong recipient survival	0.051 ± 0.017	the number of infiltrating cells were less	the number of infiltrating cells was reduced	did not prolong the recipient survival	significantly increased	did not significantly prolong the recipient survival	did not significantly prolong recipient survival	–	–	–	–	–	–	–	–
C=CC[C@@H]1/C=C(\C)C[C@H](C)C[C@H](OC)[C@H]2O[C@@](O)(C(=O)C(=O)N3CCCC[C@H]3C(=O)O[C@H](/C(C)=C/[C@@H]3CC[C@@H](O)[C@H](OC)C3)[C@H](C)[C@@H](O)CC1=O)[C@H](C)C[C@@H]2OC [Tacrolimus]	–	–	did not significantly prolong the allograft survival	did not prolong the xenograft survival	did not significantly prolong recipient survival	–	–	–	did not prolong the recipient survival	–	–	–	the number of infiltrating cells was reduced	the number of infiltrating cells were less	significantly increases	did not significantly prolong the recipient survival	did not significantly prolong recipient survival	4	more than 1 months	–
4F-benzoyl-TN14003 [BKT140]	–	–	–	–	–	–	–	–	–	–	–	–	–	–	–	–	–	–	–	~0.001

Reference: patent publication US10420751B2, “Methods of treating inflammatory bowel disease with AMD3100 and tacrolimus” (priority 2009, dated 2019)
